Results on 13 compounds are retold here after US12091426B2, “Bifunctional degraders of hematopoietic progenitor kinase and therapeutic uses thereof” (Nurix Therapeutics, Inc., priority 2021, dated 2024).

For the test, the target named is T1, HPK1 (Homo sapiens, UniProt Q92918).
T1 construct: A HiBiT tag was introduced by CRISPR on the N terminus of HPK1 in Jurkat cells; host or cells: Jurkat cells (ATCC TIB-152), monoclonal line with CRISPR knock-in of HiBiT at the endogenous HPK1 locus
The experiment in a line: HPK1 Cellular HiBit Degradation Assay. The class given is cell-based. To be noted: HiBiT HPK1 Jurkat cells, 24 hrs; for DC50: concentration at which 50% of HPK1 was remaining, read-out: DC50 Category; for Dmax: Jurkat, maximum degradation vs DMSO vehicle control, read-out: Dmax Category. The method, boiled down: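 Jurkat cells with CRISPR N-terminal HiBiT-tagged endogenous HPK1 treated 24 h at 37 °C with 11-point, 3.16-fold dilutions (10 uM to 0.1 nM final). HiBiT lytic luminescence gives % HPK1 remaining versus DMSO, with parental cells as background. Four-parameter fit yields DC50; Dmax = 100 minus lowest % remaining.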
(In general: HiBiT is a short tag that completes a luciferase, so light tracks the accessible tagged protein.)

T1 sequence (Q92918 whole entry): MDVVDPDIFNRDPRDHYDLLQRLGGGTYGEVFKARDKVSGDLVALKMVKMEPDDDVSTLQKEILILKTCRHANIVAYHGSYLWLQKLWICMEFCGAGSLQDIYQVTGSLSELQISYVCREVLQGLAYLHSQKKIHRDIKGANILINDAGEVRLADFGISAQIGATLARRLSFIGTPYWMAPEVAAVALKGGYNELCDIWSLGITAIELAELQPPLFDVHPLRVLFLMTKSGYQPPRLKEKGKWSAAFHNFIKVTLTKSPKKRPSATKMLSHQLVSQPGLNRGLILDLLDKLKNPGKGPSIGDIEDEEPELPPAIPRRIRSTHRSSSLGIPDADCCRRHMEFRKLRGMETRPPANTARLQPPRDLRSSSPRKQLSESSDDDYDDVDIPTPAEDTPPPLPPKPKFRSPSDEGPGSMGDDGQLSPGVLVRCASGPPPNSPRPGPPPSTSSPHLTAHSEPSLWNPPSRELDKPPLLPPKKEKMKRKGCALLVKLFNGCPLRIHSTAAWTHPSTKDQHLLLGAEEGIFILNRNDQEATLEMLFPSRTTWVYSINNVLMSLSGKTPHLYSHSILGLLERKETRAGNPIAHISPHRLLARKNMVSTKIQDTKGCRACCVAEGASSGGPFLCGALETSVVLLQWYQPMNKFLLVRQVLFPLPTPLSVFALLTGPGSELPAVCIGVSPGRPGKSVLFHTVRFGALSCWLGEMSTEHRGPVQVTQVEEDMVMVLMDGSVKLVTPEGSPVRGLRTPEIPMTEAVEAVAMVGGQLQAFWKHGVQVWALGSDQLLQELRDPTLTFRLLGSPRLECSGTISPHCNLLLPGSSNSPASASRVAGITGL

A word on the DC50: it is the concentration giving 50% degradation. What is called Dmax is the greatest extent of degradation seen. Turning to `CC(C)n1cnc2cc(-c3ccc4c(c3)N([C@H]3C[C@@H](N5CCCCC5)C3)C(=O)C43CCN(C(=O)C4CCN(C(=O)C5CCN(c6ccc(C7CCC(=O)NC7=O)cn6)CC5)C5(CC5)C4)CC3)nc(NC3CC3)c21` (mixture of isomers) [Example 269, (3RS)-3-(6-{4-[7-({6-[4-(cyclopropylamino)-3-(propan-2-yl)-3H-imidazo[4,5-c]pyridin-6-yl]-2-oxo-1-[(1S,3S)-3-(piperidin-1-yl)cyclobutyl]-1,2-dihydrospiro[indole-3,4′-piperidin]-1′-yl}carbonyl)-4-azaspiro[2.5]Octane-4-carbonyl]piperidin-1-yl}pyridin-3-yl)piperidine-2,6-dione], the DC50 was below 100 nM and the Dmax lay within 70 to 85%.
In the same order, the values of `CC(C)n1cnc2cc(-c3ccc4c(c3)N([C@H]3C[C@@H](N5CCCCC5)C3)C(=O)C43CCN(C(=O)C4CCN(C(=O)C5CCN(c6ccc(C7CCC(=O)NC7=O)cn6)CC5)C5(CCC5)C4)CC3)nc(NC3CC3)c21` (mixture of isomers) [Example 270, (3RS)-3-(6-{4-[8-({6-[4-(cyclopropylamino)-3-(propan-2-yl)-3H-imidazo[4,5-c]pyridin-6-yl]-2-oxo-1-[(1S,3S)-3-(piperidin-1-yl)cyclobutyl]-1,2-dihydrospiro[indole-3,4′-piperidin]-1′-yl}carbonyl)-5-azaspiro[3.5]nonane-5-carbonyl]piperidin-1-yl}pyridin-3-yl)piperidine-2,6-dione] are below 100 nM and 70 to 85%.
In the same order, the values of `CC(C)n1cnc2cc(-c3ccc4c(c3)N([C@H]3C[C@@H](N5CCCCC5)C3)C(=O)C43CCN(C(=O)C45CC(CN(C(=O)C6CCN(c7ccc(C8CCC(=O)NC8=O)cn7)CC6)C4)C5)CC3)nc(NC3CC3)c21` (mixture of isomers) [Example 271, (3RS)-3-(6-{4-[1-({6-[4-(cyclopropylamino)-3-(propan-2-yl)-3H-imidazo[4,5-c]pyridin-6-yl]-2-oxo-1-[(1S,3S)-3-(piperidin-1-yl)cyclobutyl]-1,2-dihydrospiro[indole-3,4′-piperidin]-1′-yl}carbonyl)-3-azabicyclo[3.1.1]heptane-3-carbonyl]piperidin-1-yl}pyridin-3-yl)piperidine-2,6-dione] are below 100 nM and 70 to 85%.
Regarding `CC(C)n1cnc2cc(-c3ccc4c(c3)N([C@H]3C[C@@H](N5CCCCC5)C3)C(=O)C43CCN(C(=O)C4CCCN(C(=O)C5CCN(c6ccc(C7CCC(=O)NC7=O)cn6)CC5)C4)CC3)nc(NC3CC3)c21` (mixture of isomers) [Example 272, (3RS)-3-(6-{4-[3-({6-[4-(cyclopropylamino)-3-(propan-2-yl)-3H-imidazo[4,5-c]pyridin-6-yl]-2-oxo-1-[(1S,3S)-3-(piperidin-1-yl)cyclobutyl]-1,2-dihydrospiro[indole-3,4′-piperidin]-1′-yl}carbonyl)piperidine-1-carbonyl]piperidin-1-yl}pyridin-3-yl)piperidine-2,6-dione], the DC50 is below 100 nM and the Dmax lay in the range of 70 to 85%.
In the case of `CC(C)n1cnc2cc(-c3ccc4c(c3)N([C@H]3C[C@@H](N5CCCCC5)C3)C(=O)C43CCN(C(=O)C4CCN(C(=O)C5CCN(c6ccc(C7CCC(=O)NC7=O)cn6)CC5)CC4(F)F)CC3)nc(NC3CC3)c21` (mixture of isomers) [Example 273, (3RS)-3-(6-{4-[4-({6-[4-(cyclopropylamino)-3-(propan-2-yl)-3H-imidazo[4,5-c]pyridin-6-yl]-2-oxo-1-[(1S,3S)-3-(piperidin-1-yl)cyclobutyl]-1,2-dihydrospiro[indole-3,4′-piperidin]-1′-yl}carbonyl)-3,3-Difluoropiperidine-1-carbonyl]piperidin-1-yl}pyridin-3-yl)piperidine-2,6-dione], the DC50 is below 100 nM and the Dmax was in the range of 70 to 85%.
Consider `CC(C)n1cnc2cc(-c3ccc4c(c3)N([C@H]3C[C@@H](N5CCCCC5)C3)C(=O)C43CCN(C(=O)C4(O)CCN(C(=O)C5CCN(c6ccc(C7CCC(=O)NC7=O)cc6)CC5)CC4)CC3)nc(NC3CC3)c21` (mixture of isomers) [Example 274, (3RS)-3-(4-{4-[4-({6-[4-(cyclopropylamino)-3-(propan-2-yl)-3H-imidazo[4,5-c]pyridin-6-yl]-2-oxo-1-[(1S,3S)-3-(piperidin-1-yl)cyclobutyl]-1,2-dihydrospiro[indole-3,4′-piperidin]-1′-yl}carbonyl)-4-hydroxypiperidine-1-carbonyl]piperidin-1-yl}phenyl)piperidine-2,6-dione], for which the DC50 is below 100 nM and the Dmax was 70 to 85%.
On to `CC(C)n1cnc2cc(-c3ccc4c(c3)N([C@H]3C[C@@H](N5CCCCC5)C3)C(=O)C43CCN(C(=O)C4(C(F)(F)F)CCN(C(=O)C5CCN(c6ccc(C7CCC(=O)NC7=O)cn6)CC5)CC4)CC3)nc(NC3CC3)c21` (mixture of isomers) [Example 275, (3RS)-3-(6-{4-[4-({6-[4-(cyclopropylamino)-3-(propan-2-yl)-3H-imidazo[4,5-c]pyridin-6-yl]-2-oxo-1-[(1S,3S)-3-(piperidin-1-yl)cyclobutyl]-1,2-dihydrospiro[indole-3,4′-piperidin]-1′-yl}carbonyl)-4-(trifluoromethyl)piperidine-1-carbonyl]piperidin-1-yl}pyridin-3-yl)piperidine-2,6-dione], for which the DC50 lay within 100 to 500 nM and the Dmax was above 85%.
With `CC(C)n1cnc2cc(-c3ccc4c(c3)N([C@H]3C[C@@H](N5CCCCC5)C3)C(=O)C43CCN(C(=O)C4(C(F)F)CCN(C(=O)C5CCN(c6ccc(C7CCC(=O)NC7=O)cn6)CC5)CC4)CC3)nc(NC3CC3)c21` (mixture of isomers) [Example 276, (3RS)-3-(6-{4-[4-({6-[4-(cyclopropylamino)-3-(propan-2-yl)-3H-imidazo[4,5-c]pyridin-6-yl]-2-oxo-1-[(1S,3S)-3-(piperidin-1-yl)cyclobutyl]-1,2-dihydrospiro[indole-3,4′-piperidin]-1′-yl}carbonyl)-4-(difluoromethyl)piperidine-1-carbonyl]piperidin-1-yl}pyridin-3-yl)piperidine-2,6-dione], the DC50 is below 100 nM and the Dmax is above 85%.
As for `CC(C)n1cnc2cc(-c3ccc4c(c3)N([C@H]3C[C@@H](N5CCCCC5)C3)C(=O)C43CCN(C(=O)C4(F)CCN(C(=O)C5CCN(c6ccc(C7CCC(=O)NC7=O)cn6)CC5)CC4)CC3)nc(NC3CC3)c21` (mixture of isomers) [Example 277, (3RS)-3-(6-{4-[4-({6-[4-(cyclopropylamino)-3-(propan-2-yl)-3H-imidazo[4,5-c]pyridin-6-yl]-2-oxo-1-[(1S,3S)-3-(piperidin-1-yl)cyclobutyl]-1,2-dihydrospiro[indole-3,4′-piperidin]-1′-yl}carbonyl)-4-fluoropiperidine-1-carbonyl]piperidin-1-yl}pyridin-3-yl)piperidine-2,6-dione], the DC50 is below 100 nM and the Dmax was in the range of 70 to 85%.
Take `CC(C)n1cnc2cc(-c3ccc4c(c3)N([C@H]3C[C@@H](N5CCCCC5)C3)C(=O)C43CCN(C(=O)C4(CF)CCN(C(=O)C5CCN(c6ccc(C7CCC(=O)NC7=O)cn6)CC5)CC4)CC3)nc(NC3CC3)c21` (mixture of isomers) [Example 278]: the DC50 is below 100 nM and the Dmax is above 85%.
As for `CC(C)n1cnc2cc(-c3ccc4c(c3)N([C@H]3C[C@@H](N5CCCCC5)C3)C(=O)C43CCN(C(=O)C45CN(C(=O)C6CCN(c7ccc(C8CCC(=O)NC8=O)cn7)CC6)CC(F)(C4)C5)CC3)nc(NC3CC3)c21` (mixture of isomers) [Example 279, (3RS)-3-(6-{4-[1-({6-[4-(cyclopropylamino)-3-(propan-2-yl)-3H-imidazo[4,5-c]pyridin-6-yl]-2-oxo-1-[(1S,3S)-3-(piperidin-1-yl)cyclobutyl]-1,2-dihydrospiro[indole-3,4′-piperidin]-1′-yl}carbonyl)-5-fluoro-3-azabicyclo[3.1.1]heptane-3-carbonyl]piperidin-1-yl}pyridin-3-yl)piperidine-2,6-dione], the DC50 was below 100 nM and the Dmax lay in the range of 70 to 85%.
For the compound `CC(C)n1cnc2cc(-c3ccc4c(c3)N([C@H]3C[C@@H](N5CCCCC5)C3)C(=O)C43CCN(C(=O)C4(F)CCCN(C(=O)C5CCN(c6ccc(C7CCC(=O)NC7=O)cn6)CC5)C4)CC3)nc(NC3CC3)c21` (mixture of isomers) [Example 280, (3RS)-3-(6-{4-[3-({6-[4-(cyclopropylamino)-3-(propan-2-yl)-3H-imidazo[4,5-c]pyridin-6-yl]-2-oxo-1-[(1S,3S)-3-(piperidin-1-yl)cyclobutyl]-1,2-dihydrospiro[indole-3,4′-piperidin]-1′-yl}carbonyl)-3-fluoropiperidine-1-carbonyl]piperidin-1-yl}pyridin-3-yl)piperidine-2,6-dione], the DC50 was below 100 nM and the Dmax was 70 to 85%.
In the same order, the values of `CC(C)n1cnc2cc(-c3ccc4c(c3)N([C@H]3C[C@@H](N5CCCCC5)C3)C(=O)C43CCN(C(=O)C45CN(C(=O)C6CCN(c7ccc(C8CCC(=O)NC8=O)cn7)CC6)CC4C5(F)F)CC3)nc(NC3CC3)c21` (mixture of isomers) [Example 281, (3RS)-3-(6-{4-[1-({6-[4-(cyclopropylamino)-3-(propan-2-yl)-3H-imidazo[4,5-c]pyridin-6-yl]-2-oxo-1-[(1S,3S)-3-(piperidin-1-yl)cyclobutyl]-1,2-dihydrospiro[indole-3,4′-piperidin]-1′-yl}carbonyl)-6,6-difluoro-3-azabicyclo[3.1.0]hexane-3-carbonyl]piperidin-1-yl}pyridin-3-yl)piperidine-2,6-dione] are below 100 nM and 50 to 70%.
